From ChEMBL document CHEMBL5223136, “Covalent drugs targeting histidine - an unexploited opportunity?” (RSC Med Chem, 2022)

Legend:
[1] = Microsomal stability in human liver microsomes assessed as intrinsic clearance and measured upto 60 mins in presence of NADPH by LC-MS/MS analysis; type: ADME, Microsome; details: read-out: CLH
[2] = Metabolic stability in human hepatocytes assessed as intrinsic clearance and measured upto 60 mins in presence of NADPH by LC-MS/MS analysis; type: ADME, cell-based, Hepatocyte; details: read-out: CLH
[3] = Metabolic stability in human plasma assessed as half life and measured upto 240 mins by LC-MS/MS analysis; type: ADME, cell-free

O=C1CCC(N2Cc3ccc(S(=O)(=O)F)cc3C2=O)C(=O)N1 (configuration not stated)
CLint scaled [1]: 13.7 mL/min/kg
CLint scaled [2]: < 9.6 mL/min/kg

O=C1CCC(N2Cc3ccccc3C2=O)C(=O)N1 (configuration not stated)
half-life [3]: 1.98 h
CLint scaled [1]: < 6.1 mL/min/kg
CLint scaled [2]: < 9.6 mL/min/kg

O=C1CCC(N2Cc3ccc(OS(=O)(=O)F)cc3C2=O)C(=O)N1 (configuration not stated)
CLint scaled [1]: < 6.1 mL/min/kg
CLint scaled [2]: < 9.6 mL/min/kg
